One data set concerns HBsAg. The experiment in a line: HBsAg assay (secreted HBsAg by CLIA in HepG2.2.15 cells). Conditions: Hepatitis B virus, HepG2.2.15, 96 h. It counts as cell-based, hepatitis B virus (HBV). The method, then: HepG2.2.15 cells (Sells et al, Proc Natl Acad Sci USA. 1987 February; 84(4):1005-9), a constitutively HBV-expressing cell line, were cultured in DMEM medium supplemented with 10% FBS and 400 μg/mL G418, and maintained in 5% CO2 at 37° C.
HepG2.2.15 cells were seeded into 96-well plates at 3×10^4 cells/well. The next day, the cells were treated with a five-fold serial dilution series of the compound in DMSO. The final DMSO concentration in all wells was 0.5% and 0.5% DMSO was used as no drug control. After four days of incubation with compounds, the supernatants were harvested and measured for HBsAg concentration
The HBsAg chemiluminescence immunoassay (CLIA) kit was used to measure the levels of secreted HBsAg. Specifically, 50 μL of culture supernatant was transferred to the CLIA assay plate and 50 μL of enzyme conjugate reagent was added into each well. The plates were sealed and incubated for 1 hour at room temperature. The supernatant-enzyme-mixture was discarded and wells were washed for 6 times. The residual liquid was removed by plating on tissue paper. 25 μL of substrate A and B were added into each well. Luminance was measured using a spectrometer (Tecan Infinite® F200) after 10 minutes incubation. IC50 value was extrapolated based the dose-response curves generated from the data.

A short description of data set [1]: Cytotoxicity CC50 (CellTiter-Glo). It counts as cell-based. The settings on record: human; HepG2.2.15 cells, four days. How it is done: HepG2.2.15 cells were seeded into 96-well white plate at 5000 cells/well and treated with serially diluted compounds. The plates were incubated in incubator with 5% CO2 at 37° C. for four days. The plate was taken out of incubator and adapted to room temperature for 30 minutes, followed by adding 25 μl CellTiter-Glo (Promega) reagent into each well and votexed at room temperature before being measured for luminance using spectrometer (Tecan Infinite® F200). The CC50 of each compound was defined as the compound concentration at which the treated well's cell viability is 50% compared to that of the DMSO treated well.
(Cellular ATP, detected with luciferase, serves as a proxy for viable cell number.)

IC50 and CC50 data for 22 compounds are collected here from patent US10717730B1, “Dihydroisoquinoline compound” (SUZHOU ARK BIOPHARMACEUTICAL CO., LTD., priority 2017, dated 2020).

For orientation: IC50 means the concentration that gives 50% inhibition. Low values mean greater potency, high ones weaker potency. What is called CC50 is the concentration at which the toxic effect on the cells reaches its halfway point. In turn, `COc1cc2c(cc1-c1ccnn1C(C)C)CC(C(C)(C)C)n1cc(C(=O)O)c(=O)cc1-2` (stereo not shown) [Example 18, 6-(tert-butyl)-9-(1-isopropyl-1H-pyrazol-5-yl)-10-methoxy-2-oxo-6,7-dihydro-2H-pyrido[2,1-a]isoquinoline-3-carboxylic acid] came in with an IC50 with HBsAg of 77 nM. For the same compound, the CC50 at 4 days in data set [1] was in the range of 50000 to 100000 nM.

Regarding `COc1cc2c(cc1-c1c(C)cnn1C)CC(C(C)(C)C)n1cc(C(=O)O)c(=O)cc1-2` (stereo not shown) [Example 19, 6-(tert-butyl)-9-(1,4-dimethyl-1H-pyrazol-5-yl)-10-methoxy-2-oxo-6,7-dihydro-2H-pyrido[2,1-a]isoquinoline-3-carboxylic acid], in the data set with HBsAg, the IC50 worked out at 68 nM. For the same compound, the CC50 at 4 days in data set [1] was in the range of 50000 to 100000 nM.

In the data set on HBsAg, `COc1cc2c(cc1-c1cnn(CC(=O)O)c1)CC(C(C)(C)C)n1cc(C(=O)O)c(=O)cc1-2` (stereo not shown) [Example 20, 6-(tert-butyl)-9-(1-carboxymethyl-1H-pyrazol-4-yl)-10-methoxy-2-oxo-6,7-dihydro-2H-pyrido[2,1-a]isoquinoline-3-carboxylic acid] showed an IC50 of 7 nM. This compound also displayed a CC50 at 4 days in data set [1] of more than 100000 nM.

For `CCOC(=O)CCn1cc(-c2cc3c(cc2OC)-c2cc(=O)c(C(=O)OCC)cn2C(C(C)(C)C)C3)cn1` (stereo not shown) [Example 21, Ethyl 6-(tert-butyl)-9-(1-(3-ethoxy-3-oxopropyl)-1H-pyrazol-4-yl)-10-methoxy-2-oxo-6,7-dihydro-2H-pyrido[2,1-a]isoquinoline-3-carboxylate], the IC50 in the data set with HBsAg came to 16 nM. The same compound yielded a CC50 at 4 days in data set [1] of 50000 to 100000 nM.

As for `COc1cc2c(cc1-c1cnn(CCC(=O)O)c1)CC(C(C)(C)C)n1cc(C(=O)O)c(=O)cc1-2` (stereo not shown) [Example 22, 6-(tert-butyl)-9-(1-(2-carboxyethyl)-1H-pyrazol-4-yl)-10-methoxy-2-oxo-6,7-dihydro-2H-pyrido[2,1-a]isoquinoline-3-carboxylic acid], in the data set with HBsAg, the IC50 was found to be 7 nM. Also, the CC50 at 4 days in data set [1] was in the range of 50000 to 100000 nM.

Regarding `COc1cc2c(cc1-c1cnn(CCCC(=O)O)c1)CC(C(C)(C)C)n1cc(C(=O)O)c(=O)cc1-2` (stereo not shown) [Example 24, 6-(tert-butyl)-9-(1-(3-carboxypropyl)-1H-pyrazol-4-yl)-10-methoxy-2-oxo-6,7-dihydro-2H-pyrido[2,1-a]isoquinoline-3-carboxylic acid], in the data set with HBsAg, it took 8 nM to reach half-maximal inhibition (IC50). In data set [1], the CC50 at 4 days lay in the range of 50000 to 100000 nM.

Compound `COc1cc2c(cc1-c1c[nH]nc1C)CC(C(C)(C)C)n1cc(C(=O)O)c(=O)cc1-2` (stereo not shown) [Example 25, 6-(tert-butyl)-10-methoxy-9-(3-methyl-1H-pyrazol-4-yl)-2-oxo-6,7-dihydro-2H-pyrido[2,1-a]isoquinoline-3-carboxylic acid] registered an IC50 with HBsAg of 7 nM. This compound also returned a CC50 at 4 days in data set [1] of 50000 to 100000 nM.

As to `COc1cc2c(cc1-c1cnc(C)s1)CC(C(C)(C)C)n1cc(C(=O)O)c(=O)cc1-2` (stereo not shown) [Example 28, 6-(tert-butyl)-10-methoxy-9-(2-methylthiazol-5-yl)-2-oxo-6,7-dihydro-2H-pyrido[2,1-a]isoquinoline-3-carboxylic acid], in the data set with HBsAg, the IC50 amounted to 0.2 nM. In data set [1], this compound came in with a CC50 at 4 days of more than 100000 nM.

The compound `COc1cc2c(cc1-c1nncn1CCCO)CC(C(C)(C)C)n1cc(C(=O)O)c(=O)cc1-2` (stereo not shown) [Example 31, 6-(tert-butyl)-9-(4-(3-hydroxypropyl)-4H-1,2,4-triazol-3-yl)-10-methoxy-2-oxo-6,7-dihydro-2H-pyrido[2,1-a]isoquinoline-3-carboxylic acid] yielded an IC50 in the data set on HBsAg of 826 nM. Besides, in data set [1], the CC50 at 4 days lay within 50000 to 100000 nM.

`COc1cc2c(cc1-c1ncn(CCCO)n1)CC(C(C)(C)C)n1cc(C(=O)O)c(=O)cc1-2` (stereo not shown) [Example 32, 6-(tert-butyl)-9-(1-(3-hydroxypropyl)-1H-1,2,4-triazol-3-yl)-10-methoxy-2-oxo-6,7-dihydro-2H-pyrido[2,1-a]isoquinoline-3-carboxylic acid] had an IC50 with HBsAg of 97 nM. This compound gave a CC50 at 4 days in data set [1] of 50000 to 100000 nM.

Regarding `COc1cc2c(cc1-c1ccc(C)nc1)CC(C(C)(C)C)n1cc(C(=O)O)c(=O)cc1-2` (stereo not shown) [Example 37, 6-(tert-butyl)-10-methoxy-9-(6-methylpyridin-3-yl)-2-oxo-6,7-dihydro-2H-pyrido[2,1-a]isoquinoline-3-carboxylic acid], in the data set on HBsAg, the IC50 amounted to 9 nM. In data set [1], this compound came in with a CC50 at 4 days of 50000 to 100000 nM.

Consider `COc1cc2c(cc1-c1ccc(N3CCC3)nc1)CC(C(C)(C)C)n1cc(C(=O)O)c(=O)cc1-2` (stereo not shown) [Example 50, 9-(6-(azetidin-1-yl)pyridin-3-yl)-6-(tert-butyl)-10-methoxy-2-oxo-6,7-dihydro-2H-pyrido[2,1-a]isoquinoline-3-carboxylic acid], for which, in the data set with HBsAg, half-maximal inhibition (IC50) required 0.5 nM. In data set [1], the CC50 at 4 days lay in the range of 50000 to 100000 nM.

Regarding `COc1cc2c(cc1-c1ccc(N3CCC(O)CC3)nc1)CC(C(C)(C)C)n1cc(C(=O)O)c(=O)cc1-2` (stereo not shown) [Example 51, 6-(tert-butyl)-9-(6-(4-hydroxypiperidin-1-yl)pyridin-3-yl)-10-methoxy-2-oxo-6,7-dihydro-2H-pyrido[2,1-a]isoquinoline-3-carboxylic acid], in the data set with HBsAg, half-maximal inhibition (IC50) was put at 0.8 nM. The compound also yielded a CC50 at 4 days in data set [1] of more than 100000 nM.

`CNc1ncc(-c2cc3c(cc2OC)-c2cc(=O)c(C(=O)O)cn2C(C(C)(C)C)C3)cn1` (stereo not shown) [Example 60, 6-(tert-butyl)-10-methoxy-9-(2-(methylamino)pyrimidin-5-yl)-2-oxo-6,7-dihydro-2H-pyrido[2,1-a]isoquinoline-3-carboxylic acid] returned an IC50 with HBsAg of 0.1 nM. In addition, in data set [1], the CC50 at 4 days fell in the range of 50000 to 100000 nM.

With `CCN1CCN(c2ncc(-c3cc4c(cc3OC)-c3cc(=O)c(C(=O)O)cn3C(C(C)(C)C)C4)cn2)CC1` (stereo not shown) [Example 63, 6-(tert-butyl)-9-(2-(4-ethylpiperazin-1-yl)pyrimidin-5-yl)-10-methoxy-2-oxo-6,7-dihydro-2H-pyrido[2,1-a]isoquinoline-3-carboxylic acid], the IC50 with HBsAg was found to be 27 nM. In addition, the CC50 at 4 days in data set [1] was 50000 to 100000 nM.

For `COc1cc2c(cc1-c1cnc(N3CCC3)nc1)CC(C(C)(C)C)n1cc(C(=O)O)c(=O)cc1-2` (stereo not shown) [Example 69, 9-(2-(azetidin-1-yl)pyrimidin-5-yl)-6-(tert-butyl)-10-methoxy-2-oxo-6,7-dihydro-2H-pyrido[2,1-a]isoquinoline-3-carboxylic acid], in the data set on HBsAg, the IC50 is 5 nM. In data set [1], the CC50 at 4 days lay in the range of 50000 to 100000 nM.

Turning to `CCOC(=O)c1cn2c(cc1=O)-c1cc(OC)c(-c3ccc(=O)n(C(C)(C)C(=O)OCC)c3)cc1CC2C(C)(C)C` (stereo not shown) [Example 70, Ethyl 6-(tert-butyl)-9-(1-(1-ethoxy-2-methyl-1-oxoprop-2-yl)-6-oxo-1,6-dihydropyridin-3-yl)-10-methoxy-2-oxo-6,7-dihydro-2H-pyrido[2,1-a]isoquinoline-3-carboxylate], in the data set with HBsAg, the IC50 is 44 nM. This compound gave a CC50 at 4 days in data set [1] of 50000 to 100000 nM.

For the compound `CCOC(=O)Cn1cc(-c2cc3c(cc2OC)-c2cc(=O)c(C(=O)OCC)cn2C(C(C)(C)C)C3)ccc1=O` (stereo not shown) [Example 71, Ethyl 6-(tert-butyl)-9-(1-(2-ethoxy-2-oxoethyl)-6-oxo-1,6-dihydropyridin-3-yl)-10-methoxy-2-oxo-6,7-dihydro-2H-pyrido[2,1-a]isoquinoline-3-carboxylate], the IC50 with HBsAg came out at 192 nM. In addition, the CC50 at 4 days in data set [1] was more than 100000 nM.

The compound `CCOC(=O)CCn1cc(-c2cc3c(cc2OC)-c2cc(=O)c(C(=O)OCC)cn2C(C(C)(C)C)C3)ccc1=O` (stereo not shown) [Example 72, Ethyl 6-(tert-butyl)-9-(1-(3-ethoxy-3-oxopropyl)-6-oxo-1,6-dihydropyridin-3-yl)-10-methoxy-2-oxo-6,7-dihydro-2H-pyrido[2,1-a]isoquinoline-3-carboxylate] registered an IC50 in the data set with HBsAg of 565 nM. In data set [1], the CC50 at 4 days lay within 50000 to 100000 nM.

`COc1cc2c(cc1-c1cnc(N3CCC(C(=O)O)CC3)nc1)CC(C(C)(C)C)n1cc(C(=O)O)c(=O)cc1-2` (stereo not shown) [Example 73, 6-(tert-butyl)-9-(2-(4-carboxypiperidin-1-yl)pyrimidin-5-yl)-10-methoxy-2-oxo-6,7-dihydro-2H-pyrido[2,1-a]isoquinoline-3-carboxylic acid]: the IC50 with HBsAg was 67 nM. Besides, in data set [1], the CC50 at 4 days was more than 100000 nM.

Turning to `CCOC(=O)c1cn2c(cc1=O)-c1cc(OC)c(-c3ccc(=O)n(C(C)C(=O)OCC)c3)cc1CC2C(C)(C)C` (stereo not shown) [Example 74, Ethyl 6-(tert-butyl)-9-(1-(1-ethoxy-1-oxoprop-2-yl)-6-oxo-1,6-dihydro-pyridin-3-yl)-10-methoxy-2-oxo-6,7-dihydro-2H-pyrido[2,1-a]isoquinoline-3-carboxylate], in the data set on HBsAg, the IC50 was 129 nM. The same compound gave a CC50 at 4 days in data set [1] of 50000 to 100000 nM.

In turn, `COc1cc2c(cc1-c1cnc(NCC(=O)O)nc1)CC(C(C)(C)C)n1cc(C(=O)O)c(=O)cc1-2` (stereo not shown) [Example 78, 6-(tert-butyl)-9-(2-((carboxymethyl)amino)pyrimidin-5-yl)-10-methoxy-2-oxo-6,7-dihydro-2H-pyrido[2,1-a]isoquinoline-3-carboxylic acid] returned an IC50 in the data set on HBsAg of 45 nM.
